Experimental data: PubChem BioAssay (NCI)
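Step 1: Grow cells in 96-well plates. Step 2: Expose to compound for 48 hours at 5 concentrations. Step 3: Interpolate endpoints linearly; if unreached, use highest concentration. Abbreviation: GI50, concentration required for 50% inhibition of growth. The concentration for full growth arrest is given as TGI.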

Key:
Test in all cases: NCI-60 cell line screen, 48 h
CAKI-1 renal = tested on: CAKI-1 renal
KM12 colon = tested on: KM12 colon
M14 melanoma = tested on: M14 melanoma
NCI-H226 lung = tested on: NCI-H226 lung
RPMI-8226 leukemia = tested on: RPMI-8226 leukemia
SR leukemia = tested on: SR leukemia
TK-10 renal = tested on: TK-10 renal
OVCAR-5 ovarian = tested on: OVCAR-5 ovarian

SMILES | TGI (CAKI-1 renal) [µM] | TGI (KM12 colon) [µM] | TGI (M14 melanoma) [µM] | TGI (NCI-H226 lung) [µM] | TGI (RPMI-8226 leukemia) [µM] | TGI (SR leukemia) [µM] | TGI (TK-10 renal) [µM] | GI50 (CAKI-1 renal) [µM] | GI50 (KM12 colon) [µM] | GI50 (M14 melanoma) [µM] | GI50 (NCI-H226 lung) [µM] | GI50 (OVCAR-5 ovarian) [µM] | TGI (OVCAR-5 ovarian) [µM] | GI50 (RPMI-8226 leukemia) [µM] | GI50 (TK-10 renal) [µM] | GI50 (SR leukemia) [µM]
O=S(=O)(NC1CCCCC1)c1ccc2c(c1)OCCOCCOCCOCCO2 | > 100 | > 100 | > 100 | > 100 | > 100 | > 100 | > 100 | – | – | – | – | – | – | – | – | –
CO/N=C(\COc1ccc2c(=O)c3ccccc3oc2c1)c1ccccc1 | 4.89 | > 100 | > 100 | > 100 | > 100 | – | 38.1 | 1.19 | 41.4 | 73.5 | 40.8 | 38.4 | > 100 | > 100 | 18.6 | –
CCCCCCCCCCCC1=NC(C)(C)CN1C(C)(C)CO | 4.37 | 3.14 | 3.4 | 20.5 | 5.83 | 12.5 | 3.61 | 1.73 | 1.72 | 1.79 | 5.16 | 3.61 | 15 | 2.49 | 1.94 | 3.07
C[C@H]1[C@H](C)N1CC(O)Cn1ccnc1[N+](=O)[O-] (some centres not stated) | > 100 | > 100 | > 100 | > 100 | > 100 | > 100 | > 100 | – | – | – | – | – | > 100 | – | – | –
Cc1ccc(/C=C(\C#N)c2cc3ccccc3n2C)cc1 | > 100 | > 100 | > 100 | > 100 | > 100 | > 100 | > 100 | 0.406 | 0.428 | 0.268 | 1.45 | 0.632 | > 100 | 0.38 | > 100 | 0.264
COc1ccc2c(c1)[n+](=O)c(C(=O)c1cccs1)c(C(F)(F)F)n2[O-] | 11.7 | 25.4 | > 50 | > 50 | > 50 | > 50 | 8.77 | 2.87 | 3.96 | 10.9 | 9.58 | 4.81 | > 50 | 3.41 | 1.07 | 0.775
CN1C(=O)c2ccc3ccccc3c2C1=O | > 100 | > 100 | > 100 | > 100 | > 100 | > 100 | > 100 | – | – | – | – | – | > 100 | – | – | –
COC(=O)c1c2c(c(C)[n+]([O-])c1C)C(=O)C=C(NCc1ccccc1)C2=O | 3.1 | 3.34 | 1.87 | 3.74 | 4.28 | 5.66 | 7.19 | 1.09 | 0.7 | 0.55 | 1.78 | 1.35 | 2.7 | 1.36 | 2.92 | 0.895
CN(C)c1ccc(Nc2c3ccccc3nc3ccccc23)cc1 | 2.33 | 4.54 | 2.61 | 2.68 | 3.9 | 1.35 | 4.19 | 0.486 | 1.32 | 1.22 | 1.04 | 1.54 | 6.72 | 0.984 | 0.937 | 0.297
COc1ccc2c(c1)/C(=C\c1ccncc1)C(=O)N2 | 15.9 | 24 | 26 | – | 77.1 | – | 30.5 | 3.64 | 4.83 | 8.33 | – | 23 | 49.2 | 10.2 | 15.1 | –
CCC(=O)N1C/C(=C/c2ccc(Cl)cc2)C(=O)/C(=C/c2ccc(Cl)cc2)C1 | 7.85 | 0.665 | 2.6 | 3.5 | 0.911 | – | 3.52 | 2.25 | 0.25 | 0.992 | 1.15 | 1.48 | 3 | 0.101 | 1.76 | –
O=[N+]([O-])c1cccc(/C=N/NC2=CS(=O)(=O)C=C2)c1 | > 100 | > 100 | > 100 | > 100 | > 100 | > 100 | > 100 | – | – | – | – | – | > 100 | – | – | –
COc1ccc2c(c1)nc(NNC(=O)c1cnccn1)c1cccn12 | 4.81 | 9.64 | 3.78 | 2.72 | 4.51 | > 41.3 | 3.18 | 0.659 | 0.245 | 0.275 | 0.321 | 0.962 | 5.11 | 0.435 | 0.157 | 0.24
OCCCCC#Cc1ccccc1C#Cc1ccc(O)cc1 | 30.3 | 30.9 | 36 | 39.1 | 48.9 | – | 31.7 | 15.7 | 14.5 | 17.8 | 18.3 | 16.5 | 35.2 | 19.1 | 17.5 | –
COc1ccc(-c2cc(=O)n(-c3nc4ccccc4[nH]3)[nH]2)cc1OC | > 100 | > 100 | > 100 | 67.1 | 41.3 | > 100 | – | 4.79 | 8.56 | 6.74 | 15 | 28.2 | > 100 | 4.61 | – | 3.85
COC(C)(C)[C@@H](O)[C@H](O)C[C@H](C)C1=C2CC[C@@H]3[C@@]4(C)CC[C@@H](OC(C)=O)C(C)(C)[C@@H]4C[C@@H](OC4OC(COC(C)=O)C(O)C(O)C4O)[C@@]3(C)[C@]2(C)CC1 (some centres not stated) | 14.8 | 18.9 | 25.4 | 26.7 | 22.1 | 14.3 | – | 4.1 | 3.55 | 12.4 | 13.3 | 14.9 | 28.1 | 4.15 | – | 3.06
Cc1cn2c(/C=C3/C(=O)Nc4c3ccc3ccccc43)c(C(F)(F)F)nc2s1 | > 100 | 38.5 | 11.7 | > 100 | – | 26.4 | > 100 | 1.76 | 0.493 | 0.526 | 17.9 | 9.99 | > 100 | – | 12.6 | 0.238

SMILES | TGI (CAKI-1 renal) [µM] | TGI (KM12 colon) [µM] | TGI (M14 melanoma) [µM] | TGI (NCI-H226 lung) [µM] | TGI (RPMI-8226 leukemia) [µM] | TGI (SR leukemia) [µM] | TGI (TK-10 renal) [µM] | GI50 (CAKI-1 renal) [µM] | GI50 (KM12 colon) [µM] | GI50 (M14 melanoma) [µM] | GI50 (NCI-H226 lung) [µM] | GI50 (OVCAR-5 ovarian) [µM] | TGI (OVCAR-5 ovarian) [µM] | GI50 (RPMI-8226 leukemia) [µM] | GI50 (TK-10 renal) [µM] | GI50 (SR leukemia) [µM]
Cc1ccc2nc3ccccc3c(NCc3ccc(Cl)cc3)c2c1 | 11 | 13.5 | 13.6 | 17 | 4.1 | 3.84 | 16.7 | 4.89 | 6.5 | 6.75 | 6.77 | 4.67 | 11.1 | 1.44 | 8.94 | 1.48
Cc1ccc(S(=O)(=O)Oc2ccc3c4c(c(=O)oc3c2)CCCCCC4)cc1 | – | > 100 | > 100 | > 100 | > 100 | > 100 | > 100 | – | 4.78 | > 100 | 8.31 | > 100 | > 100 | 2.33 | > 100 | 5.66
CCCn1c2c(c3c(O)cccc31)C(=O)c1ccccc1-2 | 61.9 | – | > 100 | > 100 | > 100 | 23.8 | > 100 | 20.2 | – | 60.6 | 28.3 | 3.72 | > 100 | 7.34 | 16.4 | 0.0354
CNC(=O)NCC1OC(n2cnc3c(NC(=O)Nc4ccccc4)ncnc32)C(O[Si](C)(C)C(C)(C)C)C1O[Si](C)(C)C(C)(C)C (configuration not stated) | 7.93 | 4.14 | 18.5 | 8.63 | > 100 | – | 72.6 | 2.7 | 2.13 | 4.33 | 3.1 | 5.24 | 25.2 | 3.27 | 4.29 | –
C=C1C(=O)O[C@H]2[C@H]1CC/C(COC(=O)CCCCCC(=O)OC/C1=C/CC[C@@]3(C)O[C@H]3[C@H]3OC(=O)C(=C)[C@@H]3CC1)=C\CC[C@@]1(C)O[C@@H]21 | – | 5.4 | 8.29 | 5.53 | 5.51 | 5.58 | 5.7 | – | 2.17 | 2.68 | 2.02 | 1.97 | 4.17 | 1.69 | 2.58 | 0.336
N#C/C(=C/C=C/c1ccco1)C(N)=O | > 10 | > 10 | > 10 | > 10 | – | – | > 10 | – | – | – | – | – | > 10 | – | – | –
CC1=CC2C(C(O)CC3(C)C2CC(C)C32OCOC23COCO3)C2(C)C/C(=C/O)C(=O)C=C12 (configuration not stated) | 3.8 | 4.77 | 3.51 | – | 5.15 | 4.45 | 3.59 | 1.94 | 2.39 | 1.66 | – | 1.98 | 3.92 | 1.84 | 1.91 | 2.11
C#C[C@]1(O)CC[C@H]2[C@@H]3CC=C4c5sc(Nc6cc(F)ccc6F)nc5CC[C@]4(C)[C@H]3CC[C@@]21C | 2.79 | 4.34 | 2.77 | – | 0.934 | > 100 | 5.37 | 1.38 | 1.97 | 1.28 | – | 1.93 | 5.18 | 0.196 | 2.58 | 0.568
OC1(c2ccccc2)C2CC=CC2C1(c1ccccc1)c1ccccc1 (configuration not stated) | 60.1 | > 100 | > 100 | – | 86.5 | > 100 | > 100 | – | – | – | – | – | > 100 | – | – | –
NC(=N\N=C/c1ccc(O)cc1)/C(N)=N\N=C/c1ccc(O)cc1 | > 100 | > 100 | > 100 | > 100 | > 100 | – | > 100 | 2.06 | 1.75 | 5.56 | > 100 | > 100 | > 100 | > 24.8 | > 100 | –
Cc1ccc(/C=C/c2c(C(=O)/C=C/c3ccccc3)c(C)nc3ccccc23)cc1 | – | 3.36 | 4.52 | 3.46 | 5.13 | 5.67 | – | – | 1.72 | 1.87 | 1.69 | 1.9 | 3.53 | 1.54 | – | 1.18
COc1cc2c(cc1OC)-c1ncc3c(OC)ccc(OC)c3c1C2 | > 100 | 83.7 | > 100 | – | 78.2 | – | 43.6 | 14.4 | 16.5 | > 100 | – | 44 | > 100 | 6.44 | 16.8 | –
COc1ccc(-c2c(C)c(C(=O)O)nc(-c3ccc4c(O)c(OC)c5c(c4n3)=NC(C)(C)N=5)c2N)c(O)c1OC | – | 33.1 | 74.6 | 63.1 | 86.6 | 1.94 | 72.7 | – | – | – | – | – | > 100 | – | – | –
C=C(C)[C@@H]1CCC=C2CC[C@]3(C)[C@H](CC[C@@H]4[C@@]5(C)CCCNC(C)(C)[C@@H]5CC[C@]43C)[C@H]21 | – | – | 3.34 | 9.14 | 5.15 | 3.65 | 4.98 | – | – | 1.73 | 2.8 | 2.01 | 4.46 | 2.14 | 2.02 | 1.25
c1ccc(-c2nn3c(c2-c2ccnc4cc(OCCN5CCOCC5)ccc24)CCC3)nc1 | > 100 | > 100 | > 100 | > 100 | > 100 | – | > 100 | 45.6 | 59.4 | 70.8 | > 81.2 | 72.1 | > 100 | 53.7 | > 100 | –
Oc1c(C(Nc2ccccc2Br)c2ccccc2)ccc2cccnc12 (configuration not stated) | 54.3 | > 100 | 8.47 | – | > 100 | > 100 | 46.3 | 1.36 | 2.47 | 2.3 | – | 5.34 | 51.7 | 6.28 | 3.34 | 0.715
O=[N+]([O-])c1ccc(NN=C2CN3CCN(C2)c2ccccc23)c([N+](=O)[O-])c1 | > 100 | > 100 | > 100 | – | – | > 100 | > 100 | – | – | – | – | – | > 100 | – | – | –
